From patent publication US10363251B2, “(+)-morphinans as antagonists of toll-like receptor 9 and therapeutic uses thereof” (Mallinckrodt LLC, priority 2009, dated 2019)

Target: T1, TLR9 (Homo sapiens, UniProt Q9NR96)
T1 construct: expressed in transfected cells; host or cells: HEK293
T1 sequence (Q9NR96 26-1032): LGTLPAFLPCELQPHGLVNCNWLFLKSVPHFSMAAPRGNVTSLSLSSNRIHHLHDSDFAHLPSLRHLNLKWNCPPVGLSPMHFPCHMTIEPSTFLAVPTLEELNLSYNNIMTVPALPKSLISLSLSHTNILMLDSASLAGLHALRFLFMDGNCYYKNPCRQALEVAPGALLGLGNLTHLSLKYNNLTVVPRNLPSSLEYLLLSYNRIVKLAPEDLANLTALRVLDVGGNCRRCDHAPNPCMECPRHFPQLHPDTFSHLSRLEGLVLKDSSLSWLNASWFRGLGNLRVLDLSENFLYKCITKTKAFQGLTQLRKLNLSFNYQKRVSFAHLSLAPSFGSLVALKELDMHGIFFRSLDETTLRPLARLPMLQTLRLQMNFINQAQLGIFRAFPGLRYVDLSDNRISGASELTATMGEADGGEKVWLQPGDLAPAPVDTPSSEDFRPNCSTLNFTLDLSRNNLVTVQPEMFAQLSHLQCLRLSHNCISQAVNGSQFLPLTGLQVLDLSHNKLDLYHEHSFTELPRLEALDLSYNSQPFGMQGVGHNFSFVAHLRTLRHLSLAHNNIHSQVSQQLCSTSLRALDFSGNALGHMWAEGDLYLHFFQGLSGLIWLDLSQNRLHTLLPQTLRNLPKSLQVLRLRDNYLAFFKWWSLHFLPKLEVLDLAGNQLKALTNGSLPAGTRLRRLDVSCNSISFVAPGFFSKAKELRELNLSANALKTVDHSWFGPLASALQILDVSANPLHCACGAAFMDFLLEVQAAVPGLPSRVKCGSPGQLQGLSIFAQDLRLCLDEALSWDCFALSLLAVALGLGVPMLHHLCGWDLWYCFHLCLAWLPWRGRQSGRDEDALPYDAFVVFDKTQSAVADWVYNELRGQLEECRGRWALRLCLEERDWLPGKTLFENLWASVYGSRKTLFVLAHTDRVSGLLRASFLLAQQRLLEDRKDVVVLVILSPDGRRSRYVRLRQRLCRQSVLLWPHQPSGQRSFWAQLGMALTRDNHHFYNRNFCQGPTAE
Test: TLR9 screening of (+)-morphinan library, SEAP reporter in HEK293 cells expressing TLR9
Assay type: cell-based
Details: activator ODN2006; for OD 650 nm (mean ± sd): control (no activator) 0.14, activator 1.42 OD; for inhibition at 0.1 µM: HEK293, read-out: % Inhibition (mean), 100 nM; for inhibition at 10 µM: HEK293, read-out: % Inhibition (mean), 10 μM
Experimental: The secreted alkaline phosphatase reporter is under the control of a promoter inducible by the transcription factor NF-κB. A library of more than 100 (+)-morphinan compounds was screened for TLR9 antagonist activity by assessing NF-κB activation in the HEK293 cells expressing TLR9. This reporter gene allows the monitoring of signaling through the TLR, based on the activation of NF-κB.
In a 96-well plate (200 μL total volume) containing 50,000 cells/well, 20 μL of each sample compound was added to wells, in triplicate, followed by a 30 minute incubation at 37° C. and 5% CO2. After the 30 minutes of incubation, 20 μL of the activator ODN2006 was added to each well. The media added to the wells was designed for the detection of NF-κB induced SEAP expression. After a 16-20 hr incubation period, the OD at 650 nm was read on a Beckman Coulter AD 340C Absorbance Detector. All compounds were tested at concentrations of 10 μM and 100 nM.

Row | SMILES | OD 650 nm (mean ± sd) (100 nM) [OD] | OD 650 nm (mean ± sd) (10 μM) [OD] | inhibition at 0.1 µM [%] | inhibition at 10 µM [%] | % Inhibition (mean) (100 nM, 0.1 µM) [%]
1 | C=CCN1CC[C@]23C4=CC=C(OC)[C@H]2Oc2c(OC)ccc(c23)C[C@@H]41 [II-35] | 1.04 ± 0.08 | 0.34 ± 0.03 | 27 | 76 | –
2 | COC1=CC=C2[C@@H]3Cc4ccc(OC)c5c4[C@]2(CCN3CC2CC2)[C@@H]1O5 [II-36] | 1.14 ± 0.02 | 0.14 ± 0.01 | 20 | 90 | –
3 | COC1=CC=C2[C@@H]3Cc4ccc(OC)c5c4[C@]2(CCN3CC2CCC2)[C@@H]1O5 [II-37] | 1.13 ± 0.07 | 0.18 ± 0.06 | 20 | 87 | –
4 | COc1ccc2c3c1O[C@@H]1C(=O)CC[C@]4(O)[C@H](C2)N(C)CC[C@@]314 [II-39] | 1.23 ± 0.03 | 1.06 ± 0.06 | 14 | 25 | –
5 | COc1ccc2c3c1O[C@@H]1C(O)CC[C@]4(O)[C@H](C2)N(C)CC[C@@]314 (stereo partly shown) [II-40] | 1.41 ± 0.13 | 1.37 ± 0.07 | 0 | 4 | –
6 | C=C1CC[C@]2(O)[C@@H]3Cc4ccc(OC)c5c4[C@]2(CCN3C)[C@@H]1O5 [II-41] | 1.27 ± 0.03 | 1.02 ± 0.09 | 11 | 28 | –
7 | COc1ccc2c3c1O[C@@H]1C(NC(C)=O)CC[C@]4(O)[C@H](C2)N(C)CC[C@@]314 (stereo partly shown) [II-42] | 1.00 ± 0.03 | 0.14 ± 0.02 | 29 | 90 | –
8 | COc1ccc2c3c1O[C@@H]1C(N)CC[C@]4(O)[C@H](C2)N(C)CC[C@@]314 (stereo partly shown) [II-43] | 0.10 ± 0.01 | 0.09 ± 0.00 | 93 | 94 | –
9 | COc1ccc2c3c1O[C@@H]1CCC[C@]4(O)[C@H](C2)N(C)CC[C@@]314 [II-44] | 1.18 ± 0.02 | 1.03 ± 0.12 | 17 | 27 | –
10 | COc1ccc2c3c1O[C@@H]1[C@@H]4CCC5(O4)[C@H](C2)N(C)CC[C@@]315 [II-46] | 1.24 ± 0.02 | 1.30 ± 0.02 | 13 | 8 | –
11 | C=CCN1CC[C@@]23c4c5ccc(OC)c4O[C@@H]2C(=O)CC[C@]3(O)[C@@H]1C5 [II-47] | 1.18 ± 0.13 | 0.78 ± 0.07 | 17 | 45 | –
12 | C=CCN1CC[C@@]23c4c5ccc(OC)c4O[C@@H]2C(=C)CC[C@]3(O)[C@@H]1C5 [II-51] | 1.20 ± 0.04 | 0.84 ± 0.05 | 16 | 41 | –
13 | COc1ccc2c3c1O[C@@H]1C(O)CC[C@]4(O)[C@H](C2)N(CC2CCC2)CC[C@@]314 (stereo partly shown) [II-55] | 1.46 ± 0.08 | 1.17 ± 0.08 | -3 | 18 | –
14 | COc1ccc2c3c1O[C@@H]1C(=O)CC[C@@H]4[C@H](C2)N(C(=O)C2CC2)CC[C@@]314 [II-57] | 0.84 ± 0.02 | 1.15 ± 0.03 | – | 19 | 41
15 | COc1ccc2c3c1O[C@@H]1C(=O)CC[C@]4(O)[C@H](C2)N(C(=O)C2CCC2)CC[C@@]314 [II-59] | 1.19 ± 0.07 | 1.41 ± 0.13 | 17 | 1 | –
16 | COc1ccc2c3c1O[C@@H]1C(=O)CC[C@]4(O)[C@H](C2)N(C(=O)c2ccccc2)CC[C@@]314 [II-60] | 1.24 ± 0.04 | 0.17 ± 0.03 | 13 | 88 | –
17 | O=C1CC[C@@H]2[C@@H]3Cc4ccc(O)c5c4[C@]2(CCN3)[C@@H]1O5 [II-61] | 1.23 ± 0.02 | 1.22 ± 0.07 | 13 | 14 | –
18 | CN(C(=O)/C=C/c1ccoc1)[C@H]1CC[C@]2(O)[C@@H]3Cc4ccc(O)c5c4[C@]2(CC[N+]3([O-])CC2CC2)[C@@H]1O5 (stereo partly shown) [II-63] | 0.23 ± 0.07 | 0.13 ± 0.01 | 84 | 91 | –
19 | C=CCN1CC[C@@]23c4c5ccc(O)c4O[C@@H]2C(=O)CC[C@]3(O)[C@@H]1C5 [II-64] | 1.31 ± 0.14 | 0.98 ± 0.01 | 8 | 31 | –
20 | C=CCN1CC[C@@]23c4c5ccc(O)c4O[C@@H]2C(=O)CC[C@]3(OC)[C@@H]1C5 [II-70] | 1.12 ± 0.04 | 0.79 ± 0.03 | 21 | 45 | –
21 | NC1CC[C@]2(O)[C@@H]3Cc4ccc(O)c5c4[C@]2(CCN3CC2CC2)[C@@H]1O5 (stereo partly shown) [II-71] | 0.19 ± 0.01 | 0.10 ± 0.00 | 87 | 93 | –
22 | COc1ccc2c3c1O[C@@H]1[C@@H]4CCC5(O4)[C@H](C2)N(CC2CC2)CC[C@@]315 [II-72] | 1.10 ± 0.02 | 0.49 ± 0.01 | 22 | 65 | –
23 | O=C1CC[C@]2(O)[C@@H]3Cc4ccc(O)c5c4[C@]2(CCN3CC2CC2)[C@@H]1O5 [II-73] | 1.35 ± 0.13 | 0.96 ± 0.08 | 5 | 32 | –
24 | CC(=O)NC1CC[C@]2(O)[C@@H]3Cc4ccc(O)c5c4[C@]2(CCN3CC2CC2)[C@@H]1O5 (stereo partly shown) [II-75] | 1.08 ± 0.02 | 0.91 ± 0.11 | 24 | 36 | –
25 | OCCNC1CC[C@]2(O)[C@@H]3Cc4ccc(O)c5c4[C@]2(CCN3CC2CC2)[C@@H]1O5 (stereo partly shown) [II-76] | 0.16 ± 0.01 | 0.10 ± 0.01 | 89 | 93 | –
